In US6579903B2, “Klainetins and their derivatives, method for their preparation and use thereof” (Aventis Pharma Deutschland GmbH, priority 2000, dated 2003):

Legend:
[1] = Solubility (characterization); format: physicochemical
[2] = Stability (characterization); format: physicochemical
KDR = KDR (Homo sapiens, UniProt P35968); assay: KDR kinase inhibition, phosphorylation of PLCγ1 peptide substrate; format: biochemical; conditions: purified enzyme, 5 μM ATP, room temperature 1 h
Experimental: (§1) The cytostatic activities were determined by using purified enzymes in 384-well microtiter plates (coated FlashPlates, NEN Life Science). The enzyme activities were determined by means of phosphorylation of specific peptide substrates. A klainetin dilution series prepared beforehand, with concentrations of 100, 50, 25, 12.5, 6.25, 3.125, 1.5625, 0.7813, 0.3906, 0.195, 0.094, 0.047 and 0 μM, were pipetted into the wells in the appropriate order. The reaction mixture (radiolabeled ATP, buffer solution pH 7.4 and enzyme solutions) was then added followed by incubation at room temperature for 1 h.
Description of KDR reaction mixture:
Kinase buffer: 50 mM MOPS, pH7.4, 10 mM MgCl2, 2 mM DTT, 2.5 mM EGTA, 10 mM β-glycerol phosphate, 1 mM orthovanadate, and 1 mM sodium fluoride
ATP solution: 25 μCi/ml 33P-γ-ATP und 12.5 μM ATP
KDR enzyme solution: 3.5 μg/ml in kinase buffer
Wash solution: PBS (without Mg^2+, Ca^2+)
10 μl diluted klainetin solution
20 μl of enzyme solution (3.5 μg/ml; 70 ng/well)
20 μl of ATP solution (final concentration 0.5 μCi and 5 μM ATP/well)
Incubation at room temperature for 1 h, followed by washing 3× with 75 μl of wash solution and measurement in MicroBeta Counter (Wallac) for 30 sec.
(§2) The activity of the kinases (CDK4 or KDR) was meaured by incorporation of radioactive phosphate from ATP into the substrate and the inhibitory action of the klainetins (IC50) was calculated.

Cyclin D1/CDK4 = Cyclin D1/CDK4 (Homo sapiens, UniProt P11802); assay: CDK4 kinase inhibition, FlashPlate phosphorylation of peptide substrate; format: biochemical; conditions: purified enzyme, 2 μM ATP, room temperature
Experimental: as §1
Description of CDK4 reaction mixture:
Kinase buffer: 50 mM HEPES, 10 mM MgCl2, 2.5 mM EGTA pH8.0, 10 mM β-glycerol phosphate, 1 mM orthovanadate, 1 mM sodium fluoride, and 1 mM DTT
Biotinylated peptide substrate for FlashPlate coating (1 mg/ml solution in PBS buffer)
ATP solution: 100 μCi/ml 33P-γ-ATP and 10 μM ATP
Cyclin D1/CDK4 enzyme solution: 100 mg/ml in kinase buffer
Wash solution: 3% phosphoric acid
30 μl of diluted klainetin solution, 20 μl of ATP/enzyme solution (final conc. 1 μCi 33P-γ-ATP, 2 μM ATP and 1 μg of enzyme) […]
as §2

CDK2 = CDK2 (Homo sapiens, UniProt P24941); assay: CDK2 kinase inhibition (IC50); format: biochemical; conditions: purified enzyme

Chain of Cyclin D1/CDK4 (P11802 whole entry, species assumed): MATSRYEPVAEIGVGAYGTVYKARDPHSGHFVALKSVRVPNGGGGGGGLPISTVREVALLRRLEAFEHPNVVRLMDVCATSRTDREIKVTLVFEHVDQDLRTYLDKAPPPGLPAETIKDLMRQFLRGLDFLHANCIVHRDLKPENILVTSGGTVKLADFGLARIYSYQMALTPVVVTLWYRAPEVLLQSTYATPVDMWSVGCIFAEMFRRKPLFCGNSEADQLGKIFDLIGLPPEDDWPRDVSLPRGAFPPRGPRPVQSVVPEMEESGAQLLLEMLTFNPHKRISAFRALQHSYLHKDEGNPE
Chain of Cyclin D1/CDK4 (P24385 whole entry partner, species assumed): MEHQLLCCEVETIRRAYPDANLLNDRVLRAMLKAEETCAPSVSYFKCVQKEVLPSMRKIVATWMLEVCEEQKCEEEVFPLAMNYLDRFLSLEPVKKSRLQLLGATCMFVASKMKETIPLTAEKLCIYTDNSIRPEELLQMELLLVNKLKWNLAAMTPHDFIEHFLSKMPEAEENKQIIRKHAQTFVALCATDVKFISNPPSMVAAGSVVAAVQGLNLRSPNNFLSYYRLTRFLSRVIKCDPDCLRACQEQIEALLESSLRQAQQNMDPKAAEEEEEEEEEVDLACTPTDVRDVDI
Chain of KDR (P35968 20-1356, species assumed): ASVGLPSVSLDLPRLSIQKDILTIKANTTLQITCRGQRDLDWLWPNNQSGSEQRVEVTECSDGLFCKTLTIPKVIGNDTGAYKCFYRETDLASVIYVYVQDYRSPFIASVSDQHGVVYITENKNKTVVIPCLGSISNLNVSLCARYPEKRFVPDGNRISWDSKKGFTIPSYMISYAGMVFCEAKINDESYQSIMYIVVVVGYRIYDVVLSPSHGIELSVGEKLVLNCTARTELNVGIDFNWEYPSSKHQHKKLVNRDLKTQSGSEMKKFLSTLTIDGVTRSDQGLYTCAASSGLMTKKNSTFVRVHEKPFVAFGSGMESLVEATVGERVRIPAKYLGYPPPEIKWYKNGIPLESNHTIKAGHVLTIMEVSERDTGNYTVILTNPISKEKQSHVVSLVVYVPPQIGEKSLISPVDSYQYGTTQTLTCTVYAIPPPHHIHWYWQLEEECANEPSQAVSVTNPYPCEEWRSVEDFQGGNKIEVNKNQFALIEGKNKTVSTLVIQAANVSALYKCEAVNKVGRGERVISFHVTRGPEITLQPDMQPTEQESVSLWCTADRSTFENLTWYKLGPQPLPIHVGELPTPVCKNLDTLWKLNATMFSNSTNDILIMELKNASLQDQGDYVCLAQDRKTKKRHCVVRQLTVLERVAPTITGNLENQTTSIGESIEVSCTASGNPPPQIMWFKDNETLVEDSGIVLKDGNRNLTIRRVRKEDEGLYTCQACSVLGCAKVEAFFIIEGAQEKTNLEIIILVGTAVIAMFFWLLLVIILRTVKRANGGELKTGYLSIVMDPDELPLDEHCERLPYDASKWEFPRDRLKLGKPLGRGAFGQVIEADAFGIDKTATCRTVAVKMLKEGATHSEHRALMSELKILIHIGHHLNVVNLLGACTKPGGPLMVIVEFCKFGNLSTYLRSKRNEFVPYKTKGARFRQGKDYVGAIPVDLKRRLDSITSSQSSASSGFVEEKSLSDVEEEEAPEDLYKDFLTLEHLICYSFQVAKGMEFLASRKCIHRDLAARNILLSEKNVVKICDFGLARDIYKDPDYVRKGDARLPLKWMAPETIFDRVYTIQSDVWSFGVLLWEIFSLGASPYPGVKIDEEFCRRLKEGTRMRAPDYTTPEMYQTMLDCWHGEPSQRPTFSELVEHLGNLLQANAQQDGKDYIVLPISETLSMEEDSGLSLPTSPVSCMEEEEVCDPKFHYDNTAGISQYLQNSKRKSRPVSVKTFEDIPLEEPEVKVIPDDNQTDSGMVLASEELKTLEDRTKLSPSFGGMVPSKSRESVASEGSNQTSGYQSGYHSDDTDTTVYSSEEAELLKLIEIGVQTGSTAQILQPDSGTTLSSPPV

Structure (SMILES) | solubility in polar organic solvents [1] | solubility in water [1] | stability in the alkaline and strongly acidic range ([2]; alkaline and strongly acidic range) | stability in a neutral and mildly acidic environment [2] | IC50 (KDR) | IC50 (Cyclin D1/CDK4) | IC50 (CDK2) | stability in the alkaline range ([2]; alkaline range)
COc1c(Cc2cccc(O)c2O)c(O)cc2c1C(=O)CC(c1ccccc1)O2 (centres unmarked) [Klainetin A, klainetin A] | soluble | only slightly soluble | unstable | stable | 6.96 µM | 2.09 µM | 21.5 µM | 
COc1cc(O)c(Cc2cccc(O)c2O)c(O)c1C(=O)/C=C/c1ccccc1 [Klainetin B, klainetin B] | soluble | only slightly soluble |  | stable | 6.48 µM | 1.14 µM | 6.04 µM | unstable
